≈ marks a conversion by molar mass, not a printed value.
What was measured:
[1] = biological target: diacylglycerol acyltransferase; assay: Inhibitory action against rat-originated diacylglycerol acyltransferase (rat liver microsomal fraction); assay type: biochemical; conditions: [1-14C]palmitoyl-CoA, 23° C., 15 minutes
Experimental: (1) Inhibitory Action against Rat-originated Diacylglycerol Acyltransferase
The activity of diacylglycerol acyltransferase was determined in accordance with the method of Mayorek and BarTana, [J. Biol. Chem., 260, 6528-6532 (1985)] with partial modification.
Namely, a microsomal fraction prepared from rat liver was used as the enzyme source. To a 175 mM Tris-HCl buffer (pH 8.0) containing 8 mM of MgCl2, 1 mg/ml of bovine serum albumin and 2.5 mM of diisopropyl fluorophosphate, there were added 0.75 mM of dioleoylglycerol and 30 μM of [1^−14C] palmitoyl-CoA (0.02 μCi) and the total volume was adjusted to 200 μl, whereupon the enzymatic reaction mixture was incubated at 23° C. for 15 minutes. The total lipids were extracted with chloroform/methanol (1/2) mixture and each lipid was separated by a TLC (with Kiselgel GF254 and a developing solvent of petroleum ether/diethyl ether/acetic acid of 80/20/1), followed by measurement of the radioactivity of the triacylglycerol fraction using RI RADIO-SCANNER (manufactured by AMBIS System Inc., U.S.A.) to determine the diacylglycerol acyltransferase activity.

[2] = tested on: Raji cell originating from human Burkitt lymphoma (triacylglycerol synthesis); assay: Inhibitory action against synthesis of triacylglycerol in human-originated Raji cells; assay type: cell-based; conditions: [1-14C]oleic acid, 37° C., 30 minutes; for IC50: Homo sapiens, 0.5 h, read-out: drug concentration corresponding to 50% inhibition of triacylglycerol synthesis
Experimental: (2) Inhibitory Action against Synthesis of Triacylglycerol in Human-originated Cells (Raji Cell originating from Human Burkitt Lymphoma)
The assessment of the influence of the substances on triacylglycerol synthesis was performed in accordance with the method of Tomoda et al. [J. Biol. Chem., 266, 4214-4219 (1991)] using human-originated cells (Raji cell originated from human Burkitt lymphoma). A Raji cell dispersion of 2.7×10^6 cells per milliliter containing […] [1^−14C] oleic acid (0.02 μCi) was filled up to a total volume 200 μl, whereupon the reaction proceeded at 37° C. for 30 minutes. The total lipids were extracted with a chloroform/methanol (2/1) mixture. Then, the activity was measured in the same manner as in the “inhibitory action against rat-originated diacylglycerol-acyltransferase”.
The calculation of the drug concentration corresponding to 50% inhibition of triacylglycerol synthesis gives a value of 10 μg/ml for all the substances KF-1040T4A, KF-1040T4B, KF-1040T5A and KF-1040T5B.

[3] = Solubility in solvents; assay type: physicochemical
[4] = biological target: T1, acid sphingomyelinase (Homo sapiens, UniProt P17405); assay: Influence on human placenta-originated acid sphingomyelinase; assay type: biochemical; conditions: human placenta enzyme (Sigma), pH 5.0, 37° C., 30 minutes; read-out: concentration corresponding to 50% inhibition of acid sphingomyelinase (converted)
T1 construct: an acid sphingomyelinase originating from human placenta (a product of Sigma Co.) was used as the enzyme source; purchased Sigma Co; host or cells: human placenta (tissue-derived enzyme)
T1 sequence (P17405 47-631): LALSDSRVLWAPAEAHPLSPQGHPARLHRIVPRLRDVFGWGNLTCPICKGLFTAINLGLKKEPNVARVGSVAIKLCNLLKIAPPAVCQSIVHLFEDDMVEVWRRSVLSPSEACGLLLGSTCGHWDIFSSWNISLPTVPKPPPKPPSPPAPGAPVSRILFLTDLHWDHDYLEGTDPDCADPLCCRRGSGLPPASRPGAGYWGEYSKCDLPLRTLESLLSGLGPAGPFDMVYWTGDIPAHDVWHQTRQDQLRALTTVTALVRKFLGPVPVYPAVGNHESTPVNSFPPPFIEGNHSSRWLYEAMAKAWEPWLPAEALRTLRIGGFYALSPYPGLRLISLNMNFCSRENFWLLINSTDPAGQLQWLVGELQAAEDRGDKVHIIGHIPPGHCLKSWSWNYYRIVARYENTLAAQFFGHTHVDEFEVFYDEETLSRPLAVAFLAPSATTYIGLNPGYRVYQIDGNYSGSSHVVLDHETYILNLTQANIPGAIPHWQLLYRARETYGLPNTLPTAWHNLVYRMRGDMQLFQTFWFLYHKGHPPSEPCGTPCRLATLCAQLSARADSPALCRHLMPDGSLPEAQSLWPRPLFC
Experimental: (4) Influence on Human Placenta-originated Acid Sphingomyelinase
The assessment of the influence of the substances on human placenta-originated acidic sphingomyelinase was performed in accordance with the method of Jones et al. [Biochem. Journal, 195, 373-382 (1981)] with partial modification.
Thus, an acid sphingomyelinase originating from human placenta (a product of Sigma Co.) was used as the enzyme source and thereto were added 250 mM of sodium acetate buffer solution (pH 5.0), 0.1% of NP-40 (a product of Sigma Co.), and 25 μM [N-methyl-^3H] sphingomyelin (0.006 μCi), and the mixture was filled up to a total volume of 50 μl. After reaction at 37° C. for 30 minutes, 200 μl of chloroform/methanol mixture (1/2 in volume ratio) was added thereto to separate the reaction product [^3H] phosphocholine from the starting material [^3H] sphingomyelin. The upper layer was taken up into a […]. The amount of [^3H] phosphocholine was quantitatively determined by a liquid scintillation counter to estimate the acid sphingomyelinase activity.

| SMILES | drug concentration corresponding to 50% inhibition of diacylglycerol acyltransferase [1] | IC50 [2] | Solubility in solvents: methanol, benzene, chloroform and ethyl acetate [3] | Solubility in solvents: water and hexane [3] | IC50 [4] | drug concentration corresponding to 50% inhibition of triacylglycerol synthesis [2] |
| --- | --- | --- | --- | --- | --- | --- |
| CCC(C)CC(C)CC(C)C(OC1OC(CO)C(O)C(O)C1O)C(C)/C=C(\C)C(O)C(C)/C=C(\C)C(O)C(C)/C=C(\C)C(=O)OCC(O)C(O)C(O)CO (single isomer, unassigned) [KF-1040T4A] | 13.2 µg/mL | 10 µg/mL (≈ 12.9 µM) | soluble | slightly soluble | 300 µM | – |
| CCC(C)CC(C)CC(C)C(OC1OC(CO)C(O)C(O)C1O)C(C)/C=C(\C)C(O)C(C)/C=C(\C)C(O)C(C)/C=C(\C)C(=O)OCC(O)C(O)C(O)CO (single isomer, unassigned) [KF-1040T4B] | 11.6 µg/mL | – | soluble | slightly soluble | 90.1 µM | 10 µg/mL |
| CCC(C)CC(C)CC(C)C(OC1OC(COC(C)=O)C(O)C(O)C1O)C(C)/C=C(\C)C(O)C(C)/C=C(\C)C(O)C(C)/C=C(\C)C(=O)OCC(O)C(O)C(O)CO (single isomer, unassigned) [KF-1040T5A] | 18.0 µg/mL | 10 µg/mL (≈ 12.2 µM) | soluble | slightly soluble | 239 µM | – |
| CCC(C)CC(C)CC(C)C(OC1OC(COC(C)=O)C(O)C(O)C1O)C(C)/C=C(\C)C(O)C(C)/C=C(\C)C(O)C(C)/C=C(\C)C(=O)OCC(O)C(O)C(O)CO (single isomer, unassigned) [KF-1040T5B] | 14.7 µg/mL | – | soluble | slightly soluble | 59.8 µM | 10 µg/mL |

From patent US6608185B1, “Substances KF-1040T4A,KF-1040T4B, KF-1040T5A, and KF-1040T5B, and process for producing same” (Kitasato Institute, priority 2002, dated 2003)
